Where a name gives a salt, the structure may show the parent alone. Marks after values point to notes of the source that are not given here. Values belong to the molecule of their own block, whether it stands above or below them.
Experiment: Plasma metabolite profiling (GC-MS, LC-MS, SPE-LC-MS) of rats dosed once daily over 28 days; treatment ratios versus untreated control
Type: in vivo, rat
Conditions: for 5-Oxoproline, plasma metabolite ratio versus control / Alanine, plasma metabolite ratio versus control / Arginine (second line of the table), plasma metabolite ratio versus control / Arginine, plasma metabolite ratio versus control / Citrulline, plasma metabolite ratio versus control / Glutamine, plasma metabolite ratio versus control / Proline, plasma metabolite ratio versus control / Tyrosine, plasma metabolite ratio versus control: high dose
Protocol: A group of each 5 male and female rats was dosed once daily with the indicated compounds (see Table 10, below for compounds, applied doses and administration details) over 28 days.
Each dose group in the studies consisted of five rats per sex. Additional groups of each 5 male and female animals served as controls. Before starting the treatment period, animals, which were 62-64 days old when supplied, were acclimatized to the housing and environmental conditions for 7 days. All animals of the animal population were kept under the same constant temperature (20-24±3° C.) and the same constant humidity (30-70%). The animals of the animal population were fed ad libitum. The food to be used was essentially free of chemical or microbial contaminants. Drinking water was also offered ad libitum. Accordingly, the water was free of chemical and microbial contaminants as laid down in the European Drinking Water Directive 98/83/EG. The illumination period was 12 hours light followed by 12 hours darkness (12 hours light, from 6:00 to 18:00, and 12 hours darkness, from 18:00 to 6:00). […] The test substances (compounds) in the Tables 1 to 9 below were dosed and administered as described in the Table 10 above.
In the morning of day 7, 14, and 28, blood was taken from the retro-orbital venous plexus from fasted anaesthetized animals. From each animal, 1 ml of blood was collected with EDTA as anticoagulant. The samples were centrifuged for generation of plasma. All plasma samples were covered with a N2 atmosphere and then stored at −80° C. until analysis.
For mass spectrometry-based metabolite profiling analyses plasma samples were extracted and a polar and a non-polar (lipid) fraction was obtained. For GC-MS analysis, the non-polar fraction was treated with methanol under acidic conditions to yield the fatty acid methyl esters. Both fractions were further derivatised with O-methyl-hydroxyamine hydrochloride and pyridine to convert Oxogroups to O-methyloximes and subsequently with a silylating agent before analysis. In LC-MS analysis, both fractions were reconstituted in appropriate solvent mixtures. HPLC was performed by gradient elution on reversed phase separation columns. Mass spectrometric detection which allows target and high sensitivity MRM (Multiple Reaction Monitoring) profiling in parallel to a full screen analysis was applied as described in WO2003073464.
Steroids and their metabolites were measured by online SPE-LC-MS (Solid phase extraction-LC-MS).
Following comprehensive analytical validation steps, the data for each analyte were normalized against data from pool samples. These samples were run in parallel through the whole process to account for process variability. The significance of treatment group values specific for sex, treatment duration and metabolite was determined by comparing means of the treated groups to the means of the respective untreated control groups using WELCH-test and quantified with treatment ratios versus control and p-values.
The identification of the most important biomarkers per toxicity pattern was done by a ranking of the analytes in the tables below. Therefore the metabolic changes in reference treatments of a given pattern (shown in the table) were compared with changes of the same metabolite in other unrelated treatments. […] The maximum absolute value of the respective TVALUE was taken to indicate the most important metabolite for the pattern.

[1] = plasma, male rats, day 7, high dose, Table 12a
[2] = plasma, male rats, day 14, high dose, Table 12a
[3] = plasma, male rats, day 28, high dose, Table 12a
[4] = plasma, female rats, day 28, high dose, Table 6a
[5] = plasma, female rats, day 28, high dose, Table 6b
[6] = plasma, female rats, day 28, high dose, Table 8c
[7] = plasma, female rats, day 28, high dose, Table 8d
[8] = plasma, female rats, day 7, high dose, Table 4a
[9] = plasma, female rats, day 7, high dose, Table 4b
[10] = plasma, female rats, day 14, high dose, Table 4a
[11] = plasma, female rats, day 14, high dose, Table 4b
[12] = plasma, female rats, day 28, high dose, Table 4a
[13] = plasma, female rats, day 28, high dose, Table 4b

Molecule: Lead acetate trihydrate
5-Oxoproline, plasma metabolite ratio versus control (male rats, day 7 (m7)): 0.88
Alanine, plasma metabolite ratio versus control (male rats, day 7 (m7)): 0.68
Arginine (second line of the table), plasma metabolite ratio versus control (male rats, day 7 (m7)): 0.91
Arginine, plasma metabolite ratio versus control (male rats, day 7 (m7)): 0.86
Citrulline, plasma metabolite ratio versus control (male rats, day 7 (m7)): 0.94
Glutamine, plasma metabolite ratio versus control (male rats, day 7 (m7)): 0.83
Proline, plasma metabolite ratio versus control (male rats, day 7 (m7)): 0.88
Tyrosine, plasma metabolite ratio versus control (male rats, day 7 (m7)): 0.92
5-Oxoproline, plasma metabolite ratio versus control (male rats, day 14 (m14)): 0.92
Alanine, plasma metabolite ratio versus control (male rats, day 14 (m14)): 0.75
Arginine (second line of the table), plasma metabolite ratio versus control (male rats, day 14 (m14)): 0.90
Arginine, plasma metabolite ratio versus control (male rats, day 14 (m14)): 0.87
Citrulline, plasma metabolite ratio versus control (male rats, day 14 (m14)): 0.90
Glutamine, plasma metabolite ratio versus control (male rats, day 14 (m14)): 0.83
Proline, plasma metabolite ratio versus control (male rats, day 14 (m14)): 0.84
Tyrosine, plasma metabolite ratio versus control (male rats, day 14 (m14)): 0.88
5-Oxoproline, plasma metabolite ratio versus control (male rats, day 28 (m28)): 0.86
Alanine, plasma metabolite ratio versus control (male rats, day 28 (m28)): 0.75
Arginine (second line of the table), plasma metabolite ratio versus control (male rats, day 28 (m28)): 0.89
Arginine, plasma metabolite ratio versus control (male rats, day 28 (m28)): 0.90
Citrulline, plasma metabolite ratio versus control (male rats, day 28 (m28)): 0.91
Glutamine, plasma metabolite ratio versus control (male rats, day 28 (m28)): 0.87
Proline, plasma metabolite ratio versus control (male rats, day 28 (m28)): 0.88
Tyrosine, plasma metabolite ratio versus control (male rats, day 28 (m28)): 0.90
Creatinine, ratio versus control [1]: 1.16
Creatinine, ratio versus control [2]: 1.32
Creatinine, ratio versus control [3]: 1.66

Molecule: CN1CCc2cccc3c2[C@H]1Cc1ccc(O)c(O)c1-3 [Apomorphine]
Isoleucine, ratio versus control [4]: 1.25*
14-Methylhexadecanoic acid, ratio versus control [5]: 0.83*
16-Methylheptadecanoic acid, ratio versus control [5]: 0.66*
17-Methyloctadecanoic acid, ratio versus control [5]: 0.73*
Ceramide (d18:1,C24:1), ratio versus control [5]: 0.61*
Choline plasmalogen No 03, ratio versus control [5]: 0.89*
Isopalmitic acid (C16:0), ratio versus control [5]: 0.93
Lactate, ratio versus control [5]: 0.9
Myristic acid (C14:0), ratio versus control [5]: 0.9*
Phosphatidylcholine (C16:0, C20:4), ratio versus control [5]: 0.88*
Phosphatidylcholine No 04, ratio versus control [5]: 0.88*
Pyruvate, ratio versus control [5]: 0.33*
3-Hydroxybutyrate, ratio versus control [6]: 1.41 *
Isoleucine, ratio versus control [6]: 1.25 *
TAG (C16:0,C18:2), ratio versus control [6]: 2.31 *
16-Methylheptadecanoic acid, ratio versus control [7]: 0.66 *
17-Methyloctadecanoic acid, ratio versus control [7]: 0.73 *
Ceramide (d18:1,C24:1), ratio versus control [7]: 0.61 *
Phosphatidylcholine (C16:0, C20:4), ratio versus control [7]: 0.88 *
Phosphatidylcholine (C18:0, C20:3), ratio versus control [7]: 0.98 *
Pyruvate, ratio versus control [7]: 0.33 *

Molecule: CC1(C)C(C(Cl)Cl)C2(Cl)C(Cl)C(Cl)C1(Cl)C2(Cl)Cl (stereo not drawn) [Toxaphene]
5-Oxoproline, plasma metabolite ratio versus control (male rats, day 7 (m7)): 0.98
Alanine, plasma metabolite ratio versus control (male rats, day 7 (m7)): 0.82
Arginine (second line of the table), plasma metabolite ratio versus control (male rats, day 7 (m7)): 0.87
Arginine, plasma metabolite ratio versus control (male rats, day 7 (m7)): 0.96
Citrulline, plasma metabolite ratio versus control (male rats, day 7 (m7)): 0.87
Glutamine, plasma metabolite ratio versus control (male rats, day 7 (m7)): 0.89
Proline, plasma metabolite ratio versus control (male rats, day 7 (m7)): 0.82
Tyrosine, plasma metabolite ratio versus control (male rats, day 7 (m7)): 0.86
5-Oxoproline, plasma metabolite ratio versus control (male rats, day 14 (m14)): 0.87
Alanine, plasma metabolite ratio versus control (male rats, day 14 (m14)): 0.87
Arginine (second line of the table), plasma metabolite ratio versus control (male rats, day 14 (m14)): 0.79
Arginine, plasma metabolite ratio versus control (male rats, day 14 (m14)): 0.78
Citrulline, plasma metabolite ratio versus control (male rats, day 14 (m14)): 1.07
Glutamine, plasma metabolite ratio versus control (male rats, day 14 (m14)): 0.77
Proline, plasma metabolite ratio versus control (male rats, day 14 (m14)): 0.86
Tyrosine, plasma metabolite ratio versus control (male rats, day 14 (m14)): 0.87
5-Oxoproline, plasma metabolite ratio versus control (male rats, day 28 (m28)): 0.81
Alanine, plasma metabolite ratio versus control (male rats, day 28 (m28)): 0.83
Arginine (second line of the table), plasma metabolite ratio versus control (male rats, day 28 (m28)): 0.84
Arginine, plasma metabolite ratio versus control (male rats, day 28 (m28)): 0.77
Citrulline, plasma metabolite ratio versus control (male rats, day 28 (m28)): 1.10
Glutamine, plasma metabolite ratio versus control (male rats, day 28 (m28)): 0.81
Proline, plasma metabolite ratio versus control (male rats, day 28 (m28)): 0.88
Tyrosine, plasma metabolite ratio versus control (male rats, day 28 (m28)): 0.79
Creatinine, ratio versus control [1]: 1.41
Creatinine, ratio versus control [2]: 1.45
Creatinine, ratio versus control [3]: 1.37

Ceramide (d18:1,C24:1), ratio versus control [8]: 2.34*
Docosapentaenoic acid (C22:cis[7,10,13,16,19]5), ratio versus control [8]: 1.46
Elaidic acid (C18:trans[9]1), ratio versus control [8]: 1.46
Myristic acid (C14:0), ratio versus control [8]: 0.91
Phosphatidylcholine (C16:0,C16:0), ratio versus control [8]: 1.11*
Phosphatidylcholine (C16:1,C18:2), ratio versus control [8]: 1.38*
TAG No 07, ratio versus control [8]: 2.57*
myo-Inositol, lipid fraction, ratio versus control [8]: 1.42
Creatinine, ratio versus control [9]: 0.97
Glutamate, ratio versus control [9]: 0.83*
Glycine, ratio versus control [9]: 1.01
Lactate, ratio versus control [9]: 0.65*
Myristic acid (C14:0), ratio versus control [9]: 0.91
Uric acid, ratio versus control [9]: 0.62*
Ceramide (d18:1,C24:1), ratio versus control [10]: 1.44*
Docosapentaenoic acid (C22:cis[7,10,13,16,19]5), ratio versus control [10]: 1.17
Galactose, lipid fraction, ratio versus control [10]: 1
Myristic acid (C14:0), ratio versus control [10]: 1.04
Phosphatidylcholine (C16:0,C16:0), ratio versus control [10]: 1.3*
Phosphatidylcholine (C16:1,C18:2), ratio versus control [10]: 1.02
TAG No 07, ratio versus control [10]: 1.79
myo-Inositol, lipid fraction, ratio versus control [10]: 1.02
Creatinine, ratio versus control [11]: 0.86
Glutamate, ratio versus control [11]: 0.93*
Lactate, ratio versus control [11]: 0.97
Myristic acid (C14:0), ratio versus control [11]: 1.04
Uric acid, ratio versus control [11]: 0.84
Ceramide (d18:1,C24:1), ratio versus control [12]: 1.22
Docosapentaenoic acid (C22:cis[7,10,13,16,19]5), ratio versus control [12]: 1.18*
Elaidic acid (C18:trans[9]1), ratio versus control [12]: 0.98
Galactose, lipid fraction, ratio versus control [12]: 0.91
Myristic acid (C14:0), ratio versus control [12]: 0.89
Phosphatidylcholine (C16:0,C16:0), ratio versus control [12]: 1.14
Phosphatidylcholine (C16:1,C18:2), ratio versus control [12]: 1
TAG No 07, ratio versus control [12]: 2.1*
myo-Inositol, lipid fraction, ratio versus control [12]: 0.96
Creatinine, ratio versus control [13]: 0.84*
Glutamate, ratio versus control [13]: 1.05
Glycine, ratio versus control [13]: 1.01
Lactate, ratio versus control [13]: 0.94
Myristic acid (C14:0), ratio versus control [13]: 0.89*
Uric acid, ratio versus control [13]: 0.88
Elaidic acid (C18:trans[9]1), ratio versus control (rat, in vivo): 1.16*
Galactose, lipid fraction, ratio versus control (rat, in vivo): 1.34*
Glycine, ratio versus control (rat, in vivo): 1.06*
Molecule: CN(C)CCCN1c2ccccc2Sc2ccc(Cl)cc21 [Chlorpromazine]

Molecule: C#C[C@]1(O)CC[C@H]2[C@@H]3CCc4cc(O)ccc4[C@H]3CC[C@@]21C [17-alpha-Ethynylestradiol]
3-Methoxytyrosine, ratio versus control [4]: 1.29*
Isoleucine, ratio versus control [4]: 1.07
4-Hydroxy-3-methoxyphenylglycol (HMPG), ratio versus control [5]: 0.7*
14-Methylhexadecanoic acid, ratio versus control [5]: 0.86*
16-Methylheptadecanoic acid, ratio versus control [5]: 0.29*
17-Methyloctadecanoic acid, ratio versus control [5]: 0.46*
Ceramide (d18:1,C24:1), ratio versus control [5]: 0.6*
Choline plasmalogen No 03, ratio versus control [5]: 0.38*
Homovanillic acid (HVA), ratio versus control [5]: 0.47*
Isopalmitic acid (C16:0), ratio versus control [5]: 0.51*
Lactate, ratio versus control [5]: 0.99
Myristic acid (C14:0), ratio versus control [5]: 0.59*
Phosphatidylcholine (C16:0, C20:4), ratio versus control [5]: 0.78*
Phosphatidylcholine No 04, ratio versus control [5]: 0.39*
Pyruvate, ratio versus control [5]: 0.87*

Molecule: CC(C)C[C@H]1C(=O)N2CCC[C@H]2[C@]2(O)O[C@](NC(=O)[C@@H]3C=C4c5cccc6[nH]c(Br)c(c56)C[C@H]4N(C)C3)(C(C)C)C(=O)N12 [Bromocriptine Mesylate]
Isoleucine, ratio versus control [4]: 1.14*
14-Methylhexadecanoic acid, ratio versus control [5]: 0.85*
16-Methylheptadecanoic acid, ratio versus control [5]: 0.51*
17-Methyloctadecanoic acid, ratio versus control [5]: 0.67*
Ceramide (d18:1,C24:1), ratio versus control [5]: 0.6*
Choline plasmalogen No 03, ratio versus control [5]: 0.62*
Isopalmitic acid (C16:0), ratio versus control [5]: 0.62*
Lactate, ratio versus control [5]: 0.47*
Myristic acid (C14:0), ratio versus control [5]: 0.84
Phosphatidylcholine (C16:0, C20:4), ratio versus control [5]: 0.94*
Phosphatidylcholine No 04, ratio versus control [5]: 0.47*
Pyruvate, ratio versus control [5]: 0.71*
3-Hydroxybutyrate, ratio versus control [6]: 1.13^
Isoleucine, ratio versus control [6]: 1.14 *
TAG (C16:0,C18:2), ratio versus control [6]: 1.2 *
16-Methylheptadecanoic acid, ratio versus control [7]: 0.51 *
17-Methyloctadecanoic acid, ratio versus control [7]: 0.67 *
Ceramide (d18:1,C24:1), ratio versus control [7]: 0.6 *
Phosphatidylcholine (C16:0, C20:4), ratio versus control [7]: 0.94 *
Phosphatidylcholine (C18:0, C20:3), ratio versus control [7]: 0.71 *
Pyruvate, ratio versus control [7]: 0.71 *

From patent US20150031572A1, “MEANS AND METHODS FOR ASSESSING NEURONAL TOXICITY” (priority 2012, published 2015)
